Assay results taken from ChEMBL document CHEMBL4507272 (2021).

Columns and labels:
[1] = target: Tyrosine-protein kinase receptor Tie-1 (Homo sapiens) (UniProt P35590); conditions: Compound concentration 1000.0 nM
[2] = test system: Phosphatidylinositol 4,5-bisphosphate 3-kinase catalytic subunit alpha isoform (Homo sapiens), P42336 [E542K]; conditions: Compound concentration 1000.0 nM
[3] = target: Bone morphogenetic protein receptor type-2 (Homo sapiens) (UniProt Q13873); conditions: Compound concentration 1000.0 nM
[4] = target: Macrophage colony-stimulating factor 1 receptor (Homo sapiens) (UniProt P07333); conditions: Compound concentration 1000.0 nM
[5] = target: Mast/stem cell growth factor receptor Kit (Homo sapiens) (UniProt P10721); conditions: Compound concentration 1000.0 nM
[6] = target: Cyclin-dependent kinase 13 (Homo sapiens) (UniProt Q14004); conditions: Compound concentration 1000.0 nM
[7] = target: Myotonin-protein kinase (Homo sapiens) (UniProt Q09013); conditions: Compound concentration 1000.0 nM
[8] = target: Homeodomain-interacting protein kinase 3 (Homo sapiens) (UniProt Q9H422); conditions: Compound concentration 1000.0 nM
Sequence of Homeodomain-interacting protein kinase 3 (Homo sapiens) (Q9H422 whole entry, looked up): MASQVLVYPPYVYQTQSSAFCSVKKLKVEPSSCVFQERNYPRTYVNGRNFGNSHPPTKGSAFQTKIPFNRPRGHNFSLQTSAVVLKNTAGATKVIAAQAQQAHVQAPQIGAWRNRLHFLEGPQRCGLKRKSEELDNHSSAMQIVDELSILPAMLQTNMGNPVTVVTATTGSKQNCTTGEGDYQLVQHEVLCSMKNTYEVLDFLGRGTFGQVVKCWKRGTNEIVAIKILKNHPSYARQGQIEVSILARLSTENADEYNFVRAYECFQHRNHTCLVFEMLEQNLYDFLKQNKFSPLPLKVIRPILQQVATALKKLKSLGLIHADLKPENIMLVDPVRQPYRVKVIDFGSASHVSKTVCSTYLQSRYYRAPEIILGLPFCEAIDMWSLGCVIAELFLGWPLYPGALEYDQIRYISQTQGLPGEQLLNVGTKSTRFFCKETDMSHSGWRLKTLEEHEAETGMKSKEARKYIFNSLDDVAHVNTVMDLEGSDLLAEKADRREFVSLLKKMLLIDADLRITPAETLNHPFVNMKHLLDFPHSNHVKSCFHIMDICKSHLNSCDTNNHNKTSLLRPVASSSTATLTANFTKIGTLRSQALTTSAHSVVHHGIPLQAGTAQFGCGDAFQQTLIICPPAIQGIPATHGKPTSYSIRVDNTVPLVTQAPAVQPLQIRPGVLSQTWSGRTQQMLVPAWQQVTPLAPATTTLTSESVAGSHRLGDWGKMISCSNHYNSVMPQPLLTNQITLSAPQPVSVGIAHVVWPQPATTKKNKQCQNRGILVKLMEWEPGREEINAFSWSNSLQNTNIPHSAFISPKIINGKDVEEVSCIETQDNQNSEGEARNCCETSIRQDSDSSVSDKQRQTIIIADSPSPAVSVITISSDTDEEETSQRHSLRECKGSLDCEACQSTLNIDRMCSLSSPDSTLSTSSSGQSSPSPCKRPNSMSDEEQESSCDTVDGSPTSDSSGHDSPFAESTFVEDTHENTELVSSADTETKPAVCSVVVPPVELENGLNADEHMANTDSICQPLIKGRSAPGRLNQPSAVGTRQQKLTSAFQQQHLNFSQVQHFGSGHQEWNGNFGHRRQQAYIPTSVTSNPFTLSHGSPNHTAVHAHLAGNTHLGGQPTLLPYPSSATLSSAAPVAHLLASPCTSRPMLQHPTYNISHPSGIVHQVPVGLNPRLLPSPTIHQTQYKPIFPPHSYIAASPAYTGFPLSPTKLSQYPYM

[9] = test system: Tyrosine-protein kinase ABL1 (Homo sapiens), P00519 [M351T]; conditions: Compound concentration 1000.0 nM
[10] = target: Focal adhesion kinase 1 (Homo sapiens) (UniProt Q05397); conditions: Compound concentration 1000.0 nM
Sequence of Focal adhesion kinase 1 (Homo sapiens) (Q05397 2-1052 limits assumed): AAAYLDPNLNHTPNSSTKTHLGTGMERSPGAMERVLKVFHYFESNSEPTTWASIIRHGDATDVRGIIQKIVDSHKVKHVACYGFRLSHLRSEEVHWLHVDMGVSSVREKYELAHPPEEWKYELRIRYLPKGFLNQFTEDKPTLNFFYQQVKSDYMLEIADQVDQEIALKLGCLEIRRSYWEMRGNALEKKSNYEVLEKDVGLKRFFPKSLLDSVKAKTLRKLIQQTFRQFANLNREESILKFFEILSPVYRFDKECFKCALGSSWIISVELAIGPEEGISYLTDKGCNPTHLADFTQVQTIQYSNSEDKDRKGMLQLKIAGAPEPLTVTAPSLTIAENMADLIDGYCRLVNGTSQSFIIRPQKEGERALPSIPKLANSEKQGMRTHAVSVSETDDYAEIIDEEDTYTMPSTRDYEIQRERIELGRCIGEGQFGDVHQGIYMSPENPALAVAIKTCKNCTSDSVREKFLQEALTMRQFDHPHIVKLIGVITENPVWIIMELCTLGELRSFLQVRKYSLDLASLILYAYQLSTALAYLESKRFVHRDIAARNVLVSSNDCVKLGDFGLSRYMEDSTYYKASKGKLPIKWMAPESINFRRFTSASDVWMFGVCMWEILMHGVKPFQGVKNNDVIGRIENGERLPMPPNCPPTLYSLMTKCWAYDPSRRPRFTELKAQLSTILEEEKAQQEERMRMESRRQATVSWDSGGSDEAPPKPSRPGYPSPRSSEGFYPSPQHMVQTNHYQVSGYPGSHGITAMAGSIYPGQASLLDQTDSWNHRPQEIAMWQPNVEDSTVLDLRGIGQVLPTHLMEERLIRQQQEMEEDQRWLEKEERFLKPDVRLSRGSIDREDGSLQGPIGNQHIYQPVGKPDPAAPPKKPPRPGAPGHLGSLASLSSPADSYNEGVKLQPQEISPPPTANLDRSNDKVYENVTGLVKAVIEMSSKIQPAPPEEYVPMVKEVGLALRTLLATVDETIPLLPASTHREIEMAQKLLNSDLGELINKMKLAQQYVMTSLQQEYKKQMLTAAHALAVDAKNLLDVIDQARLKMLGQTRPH

[11] = test system: eIF-2-alpha kinase GCN2 (Homo sapiens), Q9P2K8 [S808G]; conditions: Compound concentration 1000.0 nM
[12] = target: Cyclin-dependent kinase 15 (Homo sapiens) (UniProt Q96Q40); conditions: Compound concentration 1000.0 nM
Sequence of Cyclin-dependent kinase 15 (Homo sapiens) (Q96Q40 whole entry): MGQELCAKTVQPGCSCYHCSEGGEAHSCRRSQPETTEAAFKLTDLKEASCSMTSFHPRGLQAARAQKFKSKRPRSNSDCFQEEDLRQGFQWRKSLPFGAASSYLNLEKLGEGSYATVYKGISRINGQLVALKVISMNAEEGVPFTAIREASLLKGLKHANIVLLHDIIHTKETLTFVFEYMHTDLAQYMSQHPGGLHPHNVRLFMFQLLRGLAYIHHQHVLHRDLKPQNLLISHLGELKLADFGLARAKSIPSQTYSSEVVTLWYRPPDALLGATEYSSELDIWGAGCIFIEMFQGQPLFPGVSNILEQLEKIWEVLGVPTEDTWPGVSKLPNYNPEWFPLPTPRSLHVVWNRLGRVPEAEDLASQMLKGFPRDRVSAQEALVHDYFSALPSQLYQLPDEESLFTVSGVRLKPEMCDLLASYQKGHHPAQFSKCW

[13] = target: 5-hydroxytryptamine receptor 1A (Homo sapiens, UniProt P08908); experiment: GPCRScan assay: inhibition of 5-HT1A; parameters: radioligand conc. used [nm] 0.5 – 1.0, parental cells stable CHO
Sequence of 5-hydroxytryptamine receptor 1A (P08908 whole entry): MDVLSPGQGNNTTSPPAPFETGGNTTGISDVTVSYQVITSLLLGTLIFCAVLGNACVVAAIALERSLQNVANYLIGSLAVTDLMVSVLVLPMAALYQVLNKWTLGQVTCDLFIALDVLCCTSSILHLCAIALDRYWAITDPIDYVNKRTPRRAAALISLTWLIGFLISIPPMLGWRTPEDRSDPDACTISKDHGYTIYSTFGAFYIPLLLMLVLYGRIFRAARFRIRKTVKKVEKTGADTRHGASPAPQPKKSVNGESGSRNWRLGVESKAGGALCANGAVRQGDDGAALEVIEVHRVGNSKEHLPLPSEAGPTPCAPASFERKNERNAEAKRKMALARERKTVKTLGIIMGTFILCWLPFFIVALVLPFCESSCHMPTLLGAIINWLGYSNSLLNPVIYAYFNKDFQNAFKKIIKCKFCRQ

[14] = target: Membrane-associated tyrosine- and threonine-specific cdc2-inhibitory kinase (Homo sapiens) (UniProt Q99640); conditions: Compound concentration 1000.0 nM
[15] = target: G protein-coupled receptor kinase 3 (Homo sapiens) (UniProt P35626); conditions: Compound concentration 1000.0 nM
[16] = test system: Epidermal growth factor receptor (Homo sapiens), P00533 [UNDEFINED MUTATION]; conditions: Compound concentration 1000.0 nM
[17] = target: Serine/threonine-protein kinase Nek1 (Homo sapiens) (UniProt Q96PY6); conditions: Compound concentration 1000.0 nM
[18] = target: STE20-like serine/threonine-protein kinase (Homo sapiens) (UniProt Q9H2G2); conditions: Compound concentration 1000.0 nM
[19] = target: Mitogen-activated protein kinase kinase kinase kinase 2 (Homo sapiens) (UniProt Q12851); conditions: Compound concentration 1000.0 nM
[20] = target: Serine/threonine-protein kinase 24 (Homo sapiens) (UniProt Q9Y6E0); conditions: Compound concentration 1000.0 nM
[21] = target: Sigma intracellular receptor 2 (Homo sapiens) (UniProt Q5BJF2); conditions: Compound concentration 10.0 uM
Sequence of Sigma intracellular receptor 2 (Homo sapiens) (Q5BJF2 whole entry): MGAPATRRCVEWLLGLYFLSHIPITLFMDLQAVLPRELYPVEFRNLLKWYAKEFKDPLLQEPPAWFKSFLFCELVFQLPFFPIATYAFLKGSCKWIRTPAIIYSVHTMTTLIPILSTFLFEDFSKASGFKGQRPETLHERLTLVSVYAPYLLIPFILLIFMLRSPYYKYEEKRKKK

[22] = target: 5-hydroxytryptamine receptor 7 (Homo sapiens) (UniProt P34969); conditions: Compound concentration 10.0 uM
[23] = test system: Epidermal growth factor receptor (Homo sapiens), P00533 [L861Q]; conditions: Compound concentration 1000.0 nM
[24] = target: Wee1-like protein kinase (Homo sapiens) (UniProt P30291); conditions: Compound concentration 1000.0 nM
Sequence of Wee1-like protein kinase (Homo sapiens) (P30291 whole entry, looked up): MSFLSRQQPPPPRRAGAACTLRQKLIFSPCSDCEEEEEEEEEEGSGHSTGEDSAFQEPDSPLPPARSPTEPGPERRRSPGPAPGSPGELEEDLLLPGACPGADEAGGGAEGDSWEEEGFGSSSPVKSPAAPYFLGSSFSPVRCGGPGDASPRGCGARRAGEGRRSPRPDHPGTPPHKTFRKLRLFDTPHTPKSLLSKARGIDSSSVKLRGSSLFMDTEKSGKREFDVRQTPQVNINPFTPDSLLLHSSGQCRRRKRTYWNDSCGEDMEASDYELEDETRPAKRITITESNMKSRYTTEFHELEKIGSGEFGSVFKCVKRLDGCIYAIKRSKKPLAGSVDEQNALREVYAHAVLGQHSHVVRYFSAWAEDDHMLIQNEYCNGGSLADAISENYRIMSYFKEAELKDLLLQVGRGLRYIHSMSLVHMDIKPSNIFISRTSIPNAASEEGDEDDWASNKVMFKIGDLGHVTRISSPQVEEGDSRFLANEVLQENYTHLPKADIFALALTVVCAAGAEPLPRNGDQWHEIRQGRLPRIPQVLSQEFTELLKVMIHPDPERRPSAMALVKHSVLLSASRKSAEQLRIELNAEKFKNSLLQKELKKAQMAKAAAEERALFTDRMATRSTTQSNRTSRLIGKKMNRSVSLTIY

[25] = target: Calcium/calmodulin-dependent protein kinase type II subunit gamma (Homo sapiens) (UniProt Q13555); conditions: Compound concentration 1000.0 nM
[26] = target: Tyrosine-protein kinase Yes (Homo sapiens) (UniProt P07947); conditions: Compound concentration 1000.0 nM
[27] = target: Serine/threonine-protein kinase RIO3 (Homo sapiens) (UniProt O14730); conditions: Compound concentration 1000.0 nM
[28] = target: Receptor-type tyrosine-protein kinase FLT3 (Homo sapiens) (UniProt P36888); conditions: Compound concentration 1000.0 nM
[29] = target: Eukaryotic translation initiation factor 2-alpha kinase 1 (Homo sapiens) (UniProt Q9BQI3); conditions: Compound concentration 1000.0 nM
[30] = target: Serine/threonine-protein kinase Nek4 (Homo sapiens) (UniProt P51957); conditions: Compound concentration 1000.0 nM
[31] = target: Serine/threonine-protein kinase 17B (Homo sapiens) (UniProt O94768); conditions: Compound concentration 1000.0 nM
[32] = target: Dual specificity mitogen-activated protein kinase kinase 4 (Homo sapiens) (UniProt P45985); conditions: Compound concentration 1000.0 nM
[33] = target: AP2-associated protein kinase 1 (Homo sapiens) (UniProt Q2M2I8); conditions: Compound concentration 1000.0 nM
[34] = target: Cyclin-dependent kinase 5 (Homo sapiens) (UniProt Q00535); conditions: Compound concentration 1000.0 nM
[35] = target: Serine/threonine-protein kinase 36 (Homo sapiens) (UniProt Q9NRP7); conditions: Compound concentration 1000.0 nM
[36] = target: 5-hydroxytryptamine receptor 5A (Homo sapiens) (UniProt P47898); conditions: Compound concentration 10.0 uM
[37] = target: Serine/threonine-protein kinase Nek7 (Homo sapiens) (UniProt Q8TDX7); conditions: Compound concentration 1000.0 nM
[38] = target: Cyclin-dependent kinase-like 1 (Homo sapiens) (UniProt Q00532); conditions: Compound concentration 1000.0 nM
[39] = target: MAP/microtubule affinity-regulating kinase 4 (Homo sapiens) (UniProt Q96L34); conditions: Compound concentration 1000.0 nM
Sequence of MAP/microtubule affinity-regulating kinase 4 (Homo sapiens) (Q96L34 whole entry): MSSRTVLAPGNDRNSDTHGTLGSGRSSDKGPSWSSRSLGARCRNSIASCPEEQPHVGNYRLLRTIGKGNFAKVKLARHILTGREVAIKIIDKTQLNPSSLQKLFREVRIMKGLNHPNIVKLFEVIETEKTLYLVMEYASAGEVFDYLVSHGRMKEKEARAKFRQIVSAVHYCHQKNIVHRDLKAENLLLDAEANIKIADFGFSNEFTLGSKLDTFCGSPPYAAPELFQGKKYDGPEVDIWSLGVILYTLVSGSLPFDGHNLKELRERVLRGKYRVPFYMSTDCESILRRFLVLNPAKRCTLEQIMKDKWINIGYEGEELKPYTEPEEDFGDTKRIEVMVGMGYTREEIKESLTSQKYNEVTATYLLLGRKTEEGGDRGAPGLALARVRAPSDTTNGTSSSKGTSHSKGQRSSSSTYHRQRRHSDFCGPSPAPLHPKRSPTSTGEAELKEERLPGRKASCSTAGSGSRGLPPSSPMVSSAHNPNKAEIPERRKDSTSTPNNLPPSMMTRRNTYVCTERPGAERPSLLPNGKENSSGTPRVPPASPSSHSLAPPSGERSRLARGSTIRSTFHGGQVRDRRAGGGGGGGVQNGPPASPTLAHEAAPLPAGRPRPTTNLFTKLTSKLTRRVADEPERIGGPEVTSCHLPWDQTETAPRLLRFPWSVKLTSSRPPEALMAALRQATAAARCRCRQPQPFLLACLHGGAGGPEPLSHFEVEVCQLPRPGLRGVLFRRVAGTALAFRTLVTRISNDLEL

[40] = test system: Epidermal growth factor receptor (Homo sapiens), P00533 [UNDEFINED MUTATION]; conditions: Compound concentration 1000.0 nM; remark: listed apart in the source
[41] = target: Cyclin-dependent kinase 7 (Homo sapiens) (UniProt P50613); conditions: Compound concentration 1000.0 nM
Sequence of Cyclin-dependent kinase 7 (Homo sapiens) (P50613 whole entry): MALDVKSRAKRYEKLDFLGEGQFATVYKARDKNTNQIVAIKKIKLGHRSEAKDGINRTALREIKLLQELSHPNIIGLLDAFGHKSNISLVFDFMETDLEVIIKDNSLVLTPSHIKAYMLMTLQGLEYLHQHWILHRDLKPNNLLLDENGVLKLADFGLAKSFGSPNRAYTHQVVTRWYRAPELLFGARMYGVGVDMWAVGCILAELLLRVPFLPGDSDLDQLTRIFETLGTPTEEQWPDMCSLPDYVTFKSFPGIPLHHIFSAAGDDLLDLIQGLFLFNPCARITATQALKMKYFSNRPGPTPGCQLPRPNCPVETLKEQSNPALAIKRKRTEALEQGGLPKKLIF

[42] = target: Death-associated protein kinase 1 (Homo sapiens) (UniProt P53355); conditions: Compound concentration 1000.0 nM
[43] = target: Misshapen-like kinase 1 (Homo sapiens) (UniProt Q8N4C8); conditions: Compound concentration 1000.0 nM
[44] = target: Ephrin type-B receptor 4 (Homo sapiens) (UniProt P54760); conditions: Compound concentration 1000.0 nM
[45] = target: Bone morphogenetic protein receptor type-1B (Homo sapiens) (UniProt O00238); conditions: Compound concentration 1000.0 nM

## CC(=O)C1=C(C)N(c2cccc(C(F)(F)F)c2)C(=O)N[C@@H]1c1ccc(C#N)nc1 [BAY-678]
[1]
  residual activity: 89.9%
[2]
  residual activity: 100%
[3]
  residual activity: 100%
[4]
  residual activity: 100%
[5]
  residual activity: 83.8%
[6]
  residual activity: 100%
[7]
  residual activity: 86.5%
[8]
  residual activity: 100%
[9]
  residual activity: 100%
[10]
  residual activity: 100%
[11]
  residual activity: 56.9%
[12]
  residual activity: 100%
[13]; read-out: Ki
  Ki: 4.98 µM
[13]; read-out: pKi (converted)
  Ki: 4.9 µM
[14]
  residual activity: 90.6%
[15]
  residual activity: 92.6%
[16]
  residual activity: 78.6%
[17]
  residual activity: 100%
[18]
  residual activity: 98.4%
[19]
  residual activity: 100%
[20]
  residual activity: 95.4%
[21]
  inhibition: 35.9%
[22]
  inhibition: 3.93%
[23]
  residual activity: 100%
[24]
  residual activity: 100%
[25]
  residual activity: 100%
[26]
  residual activity: 81.1%
[27]
  residual activity: 100%
[28]
  residual activity: 100%
[29]
  residual activity: 100%
[30]
  residual activity: 93.9%
[31]
  residual activity: 100%
[32]
  residual activity: 98.1%
[33]
  residual activity: 100%
[34]
  residual activity: 100%
[35]
  residual activity: 100%
[36]
  inhibition: 4.22%
[37]
  residual activity: 100%
[38]
  residual activity: 80.9%
[39]
  residual activity: 100%
[40]
  residual activity: 100%
[41]
  residual activity: 90.6%
[42]
  residual activity: 93.8%
[43]
  residual activity: 100%
[44]
  residual activity: 100%
[45]
  residual activity: 74.2%
